In US20260209247A1, “Substituted Tricyclic Compounds” (Lupin Limited, priority 2019, published 2026):

Legend:
[1] = system: pERK after EGF stimulation in DLD1 cells; assay: ERK phosphorylation assay (alphascreen pERK); assay type: cell-based; settings: Homo sapiens, DLD-1, 2 h compound, 200 ng/ml hEGF for 5 minutes, read-out: ERK phosphorylation inhibition IC50
Procedure, shortened: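 DLD1 cells pretreated with test compounds for 2 h, then stimulated with 200 ng/ml hEGF for 5 min. Lysates assayed by AlphaScreen SureFire for ERK1/2 p-T202/Y204, read after 2 h at 25–28 °C. % inhibition relative to the stimulated-minus-unstimulated vehicle window.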

[2] = system: MIA PaCa-2 human pancreatic cancer xenograft; assay: MIA PaCa-2 xenograft efficacy study; assay type: in vivo; settings: b.i.d., p.o., nude mice
Experimental: In vivo efficacy of compounds 68, 101b at a dose of 30 mg/kg, b.i.d., p.o. and compound 81 at a dose of 50 mg/kg, b.i.d., p.o., was evaluated in MIA PaCa-2 human pancreatic cancer xenograft model in nude mice.
MIA PaCa-2 tumor fragments were implanted subcutaneously in the right flank region of nude mice. Tumor-bearing mice were randomized once the tumors reached an average volume of ~141-142 mm^3 (tumor volume range 72-242 mm^3).
To assess the efficacy of compound 81, the tumor-bearing mice were randomized once the tumors reached an average volume of ~181-183 mm^3 (tumor volume range 73-251 mm^3). The mice were divided into the following groups (n=8/group): Vehicle control and compound 81 (50 mg/kg, b.i d., p.o.).

[3] = biological target: T1, nucleotide exchange on hKRASG12C mediated by hSOS1 (Homo sapiens, UniProt Q07889); assay: Guanine nucleotide exchange assay (GNEA, HTRF); assay type: biochemical; settings: HIS-hSOS1 564-1049aa mediated GTP loading onto GST-hKRASG12C 1-169aa, read-out: Guanine nucleotide exchange inhibition IC50
T1 construct: HIS-hSOS1, 564-1049aa mediated GTP loading onto GST-hKRASG12C; His (N); made in house
T1 sequence (Q07889 564-1049): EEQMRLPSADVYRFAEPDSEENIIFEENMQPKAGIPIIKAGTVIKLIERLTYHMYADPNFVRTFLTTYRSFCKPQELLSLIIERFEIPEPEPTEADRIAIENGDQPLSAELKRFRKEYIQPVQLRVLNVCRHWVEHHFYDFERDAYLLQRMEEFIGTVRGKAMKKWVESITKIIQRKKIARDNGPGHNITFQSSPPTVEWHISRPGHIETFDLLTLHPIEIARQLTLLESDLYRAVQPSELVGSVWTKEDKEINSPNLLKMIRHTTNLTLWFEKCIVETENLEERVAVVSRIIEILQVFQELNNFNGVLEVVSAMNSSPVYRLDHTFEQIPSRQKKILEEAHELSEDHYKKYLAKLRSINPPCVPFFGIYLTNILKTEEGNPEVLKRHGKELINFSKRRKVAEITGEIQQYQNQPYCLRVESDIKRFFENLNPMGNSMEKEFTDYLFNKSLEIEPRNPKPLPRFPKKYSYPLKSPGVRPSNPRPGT
Procedure, shortened: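 Compounds were pre-incubated 10 min at 20 °C with HIS-hSOS1 (564-1049aa) and EDA-GTP-DY-647P1 (working solution 10-50 nM and 200 nM) in pH 7.4 HEPES with NaCl, MgCl2, DTT, BSA and Igepal. GST-hKRASG12C (1-169aa, 25-125 nM working solution) plus anti-GST-Tb was added for 30-60 min at 20 °C. Percent inhibition came from the HTRF 665/620 nm ratio.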

[4] = biological target: T2, protein-protein interaction between hSOS1 and hKRASG12C (Homo sapiens, UniProt Q07889); assay: KRAS-SOS1 interaction assay (HTRF); assay type: binding; settings: GST-hSOS1 564-1049aa, HIS-hKRASG12C, read-out: KRAS-SOS1 Interaction inhibition IC50
T2 construct: GST-hSOS1, 564-1049aa expressed and purified in-house
T2 sequence (Q07889 564-1049): T1 sequence (Q07889 564-1049)
Procedure, shortened: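 GST-hSOS1 (564-1049aa) at 10-50 nM working solution pre-incubated with compounds 10 min at 20° C in HEPES pH 7.4 buffer with EDTA, DTT, BSA and Igepal. HIS-hKRASG12C (100-300 nM working solution) added for 30-60 min, then anti-GST-d2/anti-HIS-Tb detection; percent inhibition from the 665/620 nm ratio.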

Structure (SMILES)	IC50 [1]	tumor growth inhibition ([2]; 30 mg/kg)	IC50 [3]	IC50 [4]	tumor growth inhibition ([2]; 50 mg/kg)
COC1(C)C(=O)N(C)c2cc3c(N[C@H](C)c4cccc(C(F)(F)C(C)(C)O)c4F)nc(C)nc3cc21 (single isomer, unassigned) [Compound 101b]	1 to 200 nM	65.71%	1 to 30 nM	1 to 10 nM	
Cc1nc(N[C@H](C)c2cccc(C(F)(F)C(C)(C)O)c2F)c2cc3c(cc2n1)C(C)(C)C(=O)N3C [Compound 68, (R)-4-((1-(3-(1,1-Difluoro-2-hydroxy-2-methylpropyl)-2-fluorophenyl)ethyl)amino)-2,6,8,8-tetramethyl-6,8-dihydro-7H-pyrrolo[2,3-g]quinazolin-7-one]	1 to 200 nM	63.82%	1 to 30 nM	1 to 10 nM	
Cc1nc(N[C@H](C)c2cccc(C(F)(F)C(C)(C)O)c2F)c2cc3c(cc2n1)N(C)C(=O)C3(C)C [Compound 81, (R)-4-((1-(3-(1,1-difluoro-2-hydroxy-2-methylpropyl)-2-fluorophenyl)ethyl)amino)-2,6,6,8-tetramethyl-6,8-dihydro-7H-pyrrolo[3,2-g]quinazolin-7-one]	1 to 200 nM		1 to 30 nM	1 to 10 nM	67.68%
CCN1C(=O)C(C)(C)c2cc3c(N[C@H](C)c4cccc(C(F)(F)CO)c4F)nc(C)nc3cc21 [Compound 88, (R)-4-((1-(3-(1,1-difluoro-2-hydroxyethyl)-2-fluorophenyl)ethyl)amino)-8-ethyl-2,6,6-trimethyl-6,8-dihydro-7H-pyrrolo[3,2-g]quinazolin-7-one]	1 to 200 nM		1 to 30 nM	1 to 10 nM	
Cc1nc(N[C@H](C)c2cccc(C(F)(F)C(C)(C)O)c2F)c2cc3c(c(C)c2n1)N(C)C(=O)C3(C)C [Compound 90, (R)-4-((1-(3-(1,1-difluoro-2-hydroxy-2-methylpropyl)-2-fluorophenyl)ethyl)amino)-2,6,6,8,9-pentamethyl-6,8-dihydro-7H-pyrrolo[3,2-g]quinazolin-7-one]	1 to 200 nM		31 to 130 nM	1 to 10 nM	
CCC1(CC)C(=O)N(C)c2cc3nc(C)nc(N[C@H](C)c4cccc(C(F)(F)C(C)(C)O)c4F)c3cc21 [Compound 91, (R)-4-((1-(3-(1,1-difluoro-2-hydroxy-2-methylpropyl)-2-fluorophenyl)ethyl)amino)-6,6-diethyl-2,8-dimethyl-6,8-dihydro-7H-pyrrolo[3,2-g]quinazolin-7-one]	1 to 200 nM		31 to 130 nM	11 to 25 nM	
Cc1nc(N[C@H](C)c2cccc(C(F)(F)C(C)(C)O)c2F)c2cc3c(cc2n1)N(C)C(=O)C3(CF)CF [Compound 92, (R)-4-((1-(3-(1,1-difluoro-2-hydroxy-2-methylpropyl)-2-fluorophenyl)ethyl)amino)-6,6-bis(fluoromethyl)-2,8-dimethyl-6,8-dihydro-7H-pyrrolo[3,2-g]quinazolin-7-one]	201 to 500 nM		31 to 130 nM	1 to 10 nM	
COC1(C)C(=O)N(C)c2cc3c(N[C@H](C)c4cccc(C(F)(F)C(C)(C)O)c4F)nc(C)nc3cc21 (stereo partly drawn) [Compound 101, (R&S)-4-(((R)-1-(3-(1,1-difluoro-2-hydroxy-2-methylpropyl)-2-fluorophenyl)ethyl)amino)-8-methoxy-2,6,8-trimethyl-6,8-dihydro-7H-pyrrolo[2,3-g]quinazolin-7-one]	1 to 200 nM		1 to 30 nM	1 to 10 nM	
CCn1c(=O)n(C)c2cc3nc(C)nc(N[C@H](C)c4cccc(C(F)(F)C(C)(C)O)c4F)c3cc21 [Compound 104, (R)-8-((1-(3-(1,1-difluoro-2-hydroxy-2-methylpropyl)-2-fluorophenyl)ethyl)amino)-1-ethyl-3,6-dimethyl-1H-imidazo[4,5-g]quinazolin-2(3H)-one]	1 to 200 nM		1 to 30 nM	1 to 10 nM	
Cc1nc(N[C@H](C)c2cccc(C(F)(F)C(C)(C)O)c2F)c2cc3c(cc2n1)n(C)c(=O)n3C(C)C [Compound 105, (R)-8-((1-(3-(1,1-difluoro-2-hydroxy-2-methylpropyl)-2-fluorophenyl)ethyl)amino)-1-isopropyl-3,6-dimethyl-1H-imidazo[4,5-g]quinazolin-2(3H)-one]	1 to 200 nM		1 to 30 nM	1 to 10 nM	
Cc1nc(N[C@H](C)c2cccc(C(F)(F)C(C)(C)O)c2F)c2cc3c(cc2n1)n(C)c(=O)n3CC(F)F [Compound 106, (R)-8-((1-(3-(1,1-difluoro-2-hydroxy-2-methylpropyl)-2-fluorophenyl)ethyl)amino)-1-(2,2-difluoroethyl)-3,6-dimethyl-1H-imidazo[4,5-g]quinazolin-2(3H)-one]	1 to 200 nM		1 to 30 nM	1 to 10 nM	
Cc1nc(N[C@H](C)c2cccc(C(F)(F)C(C)(C)O)c2F)c2cc3c(cc2n1)n(C)c(=O)n3C [Compound 109, (R)-8-((1-(3-(1,1-difluoro-2-hydroxy-2-methylpropyl)-2-fluorophenyl)ethyl)amino)-1,3,6-trimethyl-1,3-dihydro-2H-imidazo[4,5-g]quinazolin-2-one]	1 to 200 nM		1 to 30 nM	1 to 10 nM	
C[C@@H](Nc1nc(C2CC2)nc2cc3c(cc12)C(C)(C)C(=O)N3C)c1cccc(C(F)(F)C(C)(C)O)c1F [Compound 110, (R)-2-cyclopropyl-4-((1-(3-(1,1-difluoro-2-hydroxy-2-methylpropyl)-2-fluorophenyl)ethyl)amino)-6,6,8-trimethyl-6,8-dihydro-7H-pyrrolo[3,2-g]quinazolin-7-one]	201 to 500 nM		31 to 130 nM	11 to 25 nM	
Cc1nc(N[C@H](C)c2cccc(C(F)(F)C(C)(C)O)c2F)c2cc3c(cc2n1)C1(CCOCC1)C(=O)N3C [Compound 122, (R)-4′-((1-(3-(1,1-difluoro-2-hydroxy-2-methylpropyl)-2-fluorophenyl)ethyl)amino)-2′,6′-dimethyl-2,3,5,6-tetrahydrospiro[pyran-4,8′-pyrrolo[2,3-g]quinazolin]-7′(6′H)-one]	1 to 200 nM		1 to 30 nM	1 to 10 nM	
CO[C@]1(C)C(=O)N(C)c2cc3c(N[C@H](C)c4cc(N)cc(C(F)(F)F)c4)nc(C)nc3cc21 [Compound 131, (S)-4-(((R)-1-(3-amino-5-(trifluoromethyl)phenyl)ethyl)amino)-8-methoxy-2,6,8-trimethyl-6,8-dihydro-7H-pyrrolo[2,3-g]quinazolin-7-one]	1 to 200 nM		31 to 130 nM	11 to 25 nM	
Cc1nc(N[C@H](C)c2cc(N)cc(C(F)(F)F)c2)c2cc3c(cc2n1)C1(CCOCC1)C(=O)N3C [Compound 138, (R)-4′-((1-(3-amino-5-(trifluoromethyl)phenyl)ethyl)amino)-2′,6′-dimethyl-2,3,5,6-tetrahydrospiro[pyran-4,8′-pyrrolo[2,3-g]quinazolin]-7′(6′H)-one]	1 to 200 nM		31 to 130 nM	11 to 25 nM	
CCC1(OC)C(=O)N(C)c2cc3c(N[C@H](C)c4cc(N)cc(C(F)(F)F)c4)nc(C)nc3cc21 (stereo partly drawn) [Compound 139, (R & S)-4-(((R)-1-(3-amino-5-(trifluoromethyl)phenyl)ethyl)amino)-8-ethyl-8-methoxy-2,6-dimethyl-6,8-dihydro-7H-pyrrolo[2,3-g]quinazolin-7-one]	201 to 500 nM		31 to 130 nM	11 to 25 nM	
